Measured values published in ChEMBL document CHEMBL1149570, “Thiotetrazole alkynylacetanilides as potent and bioavailable non-nucleoside inhibitors of the HIV-1 wild type and K103N/Y181C double mutant reverse transcriptases” (Bioorg Med Chem Lett, 2007).

Assays:
Format in all cases: ADME, organism-based
[1] = AUC in rat at 5 mg/kg, po; design: dose 5 mg/kg, route oral; conditions: plasma
[2] = Cmax in rat at 5 mg/kg, po; design: dose 5 mg/kg, route oral; conditions: in vivo
[3] = Oral bioavailability in rat at 5 mg/kg; conditions: in vivo

**Q.** Which AUC [1] does the source give for CC(C)(C#Cc1ccc(NC(=O)CSc2nnnn2-c2ccc(C3CC3)cc2Cl)c(Cl)c1)CNCC(=O)O here?
**A.** Its AUC is 0.84 µM·h.

**Q.** And the Cmax [2]?
**A.** Its Cmax is 260 nM.

**Q.** And the bioavailability [3]?
**A.** Its bioavailability is 29%.

**Q.** With CC(C)(C#Cc1ccc(NC(=O)CSc2nnnn2-c2ccc(C3CC3)cc2Cl)c(Cl)c1)C(=O)O as the compound, how does the AUC [1] read?
**A.** The AUC was 9.5 µM·h.

**Q.** And the Cmax [2]?
**A.** Its Cmax is 5000 nM.

**Q.** And the bioavailability [3]?
**A.** Its bioavailability is 66%.

**Q.** Which AUC [1] does the source give for CC(C)(C#Cc1ccc(NC(=O)CSc2nnnn2-c2ccc(C3CC3)cc2Cl)c(Cl)c1)NC(=O)CN here?
**A.** Its AUC is 1 µM·h.

**Q.** And the Cmax [2]?
**A.** Its Cmax is 280 nM.

**Q.** And the bioavailability [3]?
**A.** The bioavailability was 21%.
